Test system: hippocampal kindled rats
Assay: Hippocampal kindled rat model
Assay type: in vivo, Sprague-Dawley rats
Parameters: After-Discharge Threshold: unit not given here
Conditions: for Mean Seizure Score: seizure score scale 1-5
Description: Hippocampal Kindled Rat Model
In the hippocampal kindling model (Lothman E W, et al., Epilepsy Res., 1988, 2(6) 367–79), adult male Sprague-Dawley rats are surgically implanted with bipolar electrodes. Seizure score is assessed as follows: (1) mouth and facial movements; (2) above symptoms plus head nodding; (3) above symptoms plus forelimb clonus; (4) above symptoms plus rearing; and (5) above symptoms plus falling.

[1] = 50 mg/kg intraperitoneally, n=8
[2] = 100 mg/kg intraperitoneally, n=8
[3] = 200 mg/kg intraperitoneally, n=8
[4] = 300 mg/kg intraperitoneally, 0.25 hr after dose, n=2
[5] = 300 mg/kg intraperitoneally, 1 hr after dose, n=2
[6] = 300 mg/kg intraperitoneally, 2 hr after dose, n=2
[7] = 300 mg/kg intraperitoneally, 4 hr after dose, n=2

NC(=O)OC[C@H](OC(N)=O)c1ccccc1Cl [enantiomer of Formula (Ib)]
toxicity of dose (50 mg/kg intraperitoneally): nontoxic
% Protected [1]: 12.50%
After-Discharge Duration [1]: 75.88 s
Mean Seizure Score [1]: 3.75
effect on after-discharge threshold and duration (50 mg/kg intraperitoneally, n=8 per group, over approximately a 3 hour time period): time-dependent reduction in after-discharge threshold and duration
% Protected [2]: 33.33%
After-Discharge Duration [2]: 53.17 s
Mean Seizure Score [2]: 3
% Protected [3]: 87.50%
After-Discharge Duration [3]: 42 s
Mean Seizure Score [3]: 1.63
toxicity of dose (300 mg/kg intraperitoneally): nontoxic
After-Discharge Duration [4]: 44 s
After-Discharge Threshold [4]: 105
Mean Seizure Score [4]: 2.5
After-Discharge Duration [5]: 50 s
After-Discharge Threshold [5]: >200
Mean Seizure Score [5]: 1.5
After-Discharge Duration [6]: 53 s
After-Discharge Threshold [6]: >200
Mean Seizure Score [6]: 1.5
After-Discharge Duration [7]: 111 s
After-Discharge Threshold [7]: 200
Mean Seizure Score [7]: 2.5
effect against the expression of Stage 5 seizures (300 mg/kg intraperitoneally, n=2, over a 4 hour time period): effective
ED50 (Rattus norvegicus, ip, dose range 50 to 200 mg/kg, intraperitoneally, 95% confidence interval 67.9 to 189.8 mg/kg, read-out: calculated ED50 value for reduction of the seizure score from 5 to 3 or less): 112 mg/kg
anti-kindling effects (hippocampal-kindled rat model): potent anti-kindling effects
